# Laboratory results taken from patent US8592468B2, “Bacterial thioredoxin reductase inhibitors and methods for use thereof” (Thioredoxin Systems AB, priority 2006, dated 2013).
# Like-named read-outs stand apart in the source and are kept apart here.
# Key:
# wild type DHB4 E. coli = experiment: Bacterial inhibition by ebselen derivates, MIC; conditions: Escherichia coli, DHB4E.COLI, 4 h, read-out: MIC for wild type DHB4 E. coli
# Experimental: (§1) E. coli DHB4 strains wt, gshA^−, gor^−, oxyR^− were cultured overnight in LB medium. […] OD 600 was detected and DMSO was used as the control. […] The data are the means of two experiments.
# Mammalian TrxR = conditions: from reference; cited from earlier work
# E. coli TrxR = E. coli TrxR (Escherichia coli (strain K12), UniProt P0A9P4); type: biochemical
# Experimental: In FIG. 6A, 10 μM of ebselen (▴) and 10 μM of PZ25 (▪) were used as substrate of 25 nM calf thymus TrxR. In FIG. 6B, 10 μM of PZ25 was used as substrate for 10 nM calf thymus TrxR (◯) and 10 nM of E. coli TrxR (●). Reactions were started by adding enzymes in cuvettes containing 500 μl TE buffer with 100 μM NADPH, of which the consumption were followed by the changes of the absorption at 340 nm against identical blank without enzymes.
# Reactions were started by adding enzymes to cuvettes containing 500 μl TE buffer with 100 μM NADPH and 16 μM compounds. The NADPH consumption was followed by the changes of the absorption at 340 nm against identical blank without enzymes.
# The activity of the enzyme was determined at room temperature using an Ultrospec 3000 UV/Visual spectrophotometer (Amersham Biosciences). […] The enzyme-catalysed reactions were followed at 340 nm using the standard calculation of NADPH oxidation to NADP^+ with a molar extinction coefficient of 6200 M^−1 cm^−1 (32, 34). The conditions of the assay of bacterial thioredoxin reductase have been described (32, 34) using either 1 mM DTNB or 160 μM insulin as a substrate. In DTNB coupled assays, 240 μM NADPH and 1 mM DTNB were used in the TE buffer and formation of the TNB was measured at 412 nm, where TNB has an extinction coefficient of 13600 M^−1 cm^−1.
# Further we examined the effect of ebselen in the reduction of disulphide by E. coli Trx and TrxR using both DTNB and insulin as substrates. […] FIGS. 4A and 4B show the effect of ebselen (4A) and ebselen diselenide (4B) on DTNB reduction by E. coli thioredoxin and thioredoxin reductase. Assays in semi-microcuvettes with 0.5 ml solution contained 0.24 mM NADPH, 1 mM DTNB in 50 mM Tris-Cl/1 mM EDTA, pH 7.5 buffer. (A) In the presence of 2 μM (grey filled points), 5 μM (white filled points) and 10 μM (black filled points) of E. coli Trx and 7.6 nM of E. coli TrxR with ebselen at concentrations of zero (squares), 0.5 μM (triangles), 1 μM (rhombus), and 2 μM (rounds), the increase in A412 was measured against a blank. (B) In the presence of 2 μM (grey filled points), 5 μM (white filled points) and 10 μM (black filled points) of E. coli Trx and 10 nM of E. coli TrxR, with ebselen diselenide at concentrations of zero (squares), 1 μM (triangles) and 2 μM (rounds), the increase in A412 was measured against a blank.
# Gor^- DHB4 E. coli = experiment: Bacterial inhibition by ebselen derivates, MIC; conditions: Escherichia coli, 4 h, read-out: MIC for Gor^- DHB4 E. coli
# Experimental: as §1
# [1] = system: mammalian thioredoxin reductases; experiment: Inhibition of mammalian thioredoxin reductases; type: biochemical
# Staphylococcus aureus = conditions: cited from earlier work
# [2] = system: Mycobacterium tuberculosis; experiment: Inhibition of Mycobacterium tuberculosis by ebselen, radiometric BACTEC 460 system; type: cell-based
# E. coli DHB4 strains = experiment: Sensitivity of growth of E. coli DHB4 strains to ebselen (A600); type: cell-based
# Experimental: Bacterial cells were grown in 5 mL cultures at 37° C., 120 rpm in 15 mL closed tubes containing Lutria-Bertani (LB) or M9 minimal media supplemented with 50 μg/ml Leu, Ile, 1× basal medium Eagle's vitamin solution (Invitrogen) and 2 μg/mL nicotinic acid. For the experiments regarding sensitivity of growth to ebselen, cells were initially grown overnight at 37° C. at the respective medium. The next day, equal cell numbers (as determined by A600) with dilutions of at least 1:50 were used to start 5 mL cultures containing different concentrations of Ebselen. Ebselen stock solutions were freshly prepared in DMSO. Extra DMSO was added to the cultures so that the total volumes of DMSO were the same per culture even at different final concentrations of Ebselen. Growth inhibition assays were carried out also on M9 minimal plates. The plates were covered with minimal top agar that contained equal cell number for all the strains examined. These were derived from overnight liquid cultures in M9 medium.
# Sensitivity to ebselen was measured by inhibition of growth as determined by scattering (absorbance) at 600 nm at different times after inoculation.
# [3] = biological target: E. coli ribonucleotide reductase (Escherichia coli (strain K12), UniProt P00452+P69924); experiment: Inhibition of E. coli ribonucleotide reductase (data not shown); type: biochemical
# E. coli NHHJ = conditions: strains of Enterobacteriaceae like E. coli NHHJ; cited from earlier work
# Sequence of E. coli TrxR (P0A9P4 2-321 limits assumed): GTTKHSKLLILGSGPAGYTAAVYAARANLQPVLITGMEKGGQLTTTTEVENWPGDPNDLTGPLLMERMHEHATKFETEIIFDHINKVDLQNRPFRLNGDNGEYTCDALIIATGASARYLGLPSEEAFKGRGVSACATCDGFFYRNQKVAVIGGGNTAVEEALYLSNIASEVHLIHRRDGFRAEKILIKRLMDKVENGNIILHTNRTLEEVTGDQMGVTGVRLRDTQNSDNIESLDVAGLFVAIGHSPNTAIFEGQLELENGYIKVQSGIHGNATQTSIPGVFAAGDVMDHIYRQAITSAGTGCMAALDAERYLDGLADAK
# Sequence of E. coli ribonucleotide reductase (P00452 whole entry, looked up): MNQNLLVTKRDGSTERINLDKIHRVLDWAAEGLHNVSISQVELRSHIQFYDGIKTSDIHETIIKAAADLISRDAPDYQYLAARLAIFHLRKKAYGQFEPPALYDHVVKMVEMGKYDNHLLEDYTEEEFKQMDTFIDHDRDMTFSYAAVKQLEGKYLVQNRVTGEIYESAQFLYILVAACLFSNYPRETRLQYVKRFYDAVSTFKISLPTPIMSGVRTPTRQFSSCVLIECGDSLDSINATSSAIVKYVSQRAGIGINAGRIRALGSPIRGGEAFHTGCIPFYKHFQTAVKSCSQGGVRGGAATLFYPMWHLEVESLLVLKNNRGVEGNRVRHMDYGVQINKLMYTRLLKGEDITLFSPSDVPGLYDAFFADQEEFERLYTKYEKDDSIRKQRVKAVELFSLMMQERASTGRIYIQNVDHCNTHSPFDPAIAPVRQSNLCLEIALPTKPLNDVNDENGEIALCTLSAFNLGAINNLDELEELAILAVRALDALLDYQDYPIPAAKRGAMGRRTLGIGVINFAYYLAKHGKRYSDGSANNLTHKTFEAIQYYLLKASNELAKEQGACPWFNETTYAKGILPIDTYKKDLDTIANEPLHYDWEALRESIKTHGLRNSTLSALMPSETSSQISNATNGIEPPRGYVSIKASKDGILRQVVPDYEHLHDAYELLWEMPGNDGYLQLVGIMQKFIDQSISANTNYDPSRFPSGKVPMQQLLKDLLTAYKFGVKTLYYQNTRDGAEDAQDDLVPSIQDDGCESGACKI
# Sequence of E. coli ribonucleotide reductase (P69924 whole entry, looked up): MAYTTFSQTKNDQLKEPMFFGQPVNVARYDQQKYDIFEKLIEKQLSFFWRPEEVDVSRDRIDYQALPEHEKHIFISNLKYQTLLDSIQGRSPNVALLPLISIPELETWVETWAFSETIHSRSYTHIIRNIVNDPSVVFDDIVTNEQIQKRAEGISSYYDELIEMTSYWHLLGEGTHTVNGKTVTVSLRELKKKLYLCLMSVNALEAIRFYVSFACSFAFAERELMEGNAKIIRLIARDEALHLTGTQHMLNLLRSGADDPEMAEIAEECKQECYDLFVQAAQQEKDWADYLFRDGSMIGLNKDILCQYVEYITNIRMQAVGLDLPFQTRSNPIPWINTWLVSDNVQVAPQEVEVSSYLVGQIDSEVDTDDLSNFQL
compound,measurement,setting,value
"O=c1c2ccccc2[se]n1-c1ccccc1 [EbSe 6, 2-phenyl-1,2-benzisoselenazol-3(2H)-one]",MIC,wild type DHB4 E. coli,40 µM
same,Km,Mammalian TrxR,2500 nM
same,kcat,Mammalian TrxR,588 min⁻¹
same,kcat/KM,Mammalian TrxR,235 µM⁻¹ min⁻¹
same,oxidation of NADPH when directly added to E. coli TrxR and NADPH,E. coli TrxR,no oxidations of NADPH
same,MIC,Gor^- DHB4 E. coli,15 µM
same,inhibitory activity of mammalian thioredoxin reductases,[1],no inhibitory activity
same,mode of antibacterial action,Staphylococcus aureus; S. aureus strains,bacteriocidal
same,concentration inhibiting growth,Staphylococcus aureus; Staphylococcus aureus 209P,0.20 µg/mL
same,MIC for 90% of S. aureus strains,Staphylococcus aureus,1.56 μg per ml
same,sensitivity of S. aureus relative to E. coli,Staphylococcus aureus,100 fold
same,concentration inhibiting growth,Staphylococcus aureus; methicillin resistant Staphylococcus aureus,0.20 μg per ml
same,MIC,[2]; Mycobacterium tuberculosis,< 20 µg/mL
same,Sensitivity to ebselen,"[2]; strain BTB 98-310 (MDR), ebselen 10 μg/ml",R
same,Sensitivity to ebselen,"[2]; strain BTB 98-310 (MDR), ebselen 20 μg/ml",S
same,Sensitivity to ebselen,"[2]; strain BTB 98-310 (MDR), ebselen 40 μg/ml",S
same,Sensitivity to ebselen,"[2]; strain BTB 98-310 (MDR), ebselen 80 μg/ml",S
same,Sensitivity to ebselen,"[2]; strain H37Rv, ebselen 10 μg/ml",R
same,Sensitivity to ebselen,"[2]; strain H37Rv, ebselen 20 μg/ml",S
same,Sensitivity to ebselen,"[2]; strain H37Rv, ebselen 40 μg/ml",S
same,Sensitivity to ebselen,"[2]; strain H37Rv, ebselen 80 μg/ml",S
same,Sensitivity to ebselen,"[2]; strain Panel3:24 (MDR), ebselen 10 μg/ml",R
same,Sensitivity to ebselen,"[2]; strain Panel3:24 (MDR), ebselen 20 μg/ml",S
same,Sensitivity to ebselen,"[2]; strain Panel3:24 (MDR), ebselen 40 μg/ml",S
same,Sensitivity to ebselen,"[2]; strain Panel3:24 (MDR), ebselen 80 μg/ml",S
same,wild type bacteria compared with gor^− and gshA^− strains,E. coli DHB4 strains,more resistant
same,sensitivity of gshA^−trxA^− strain,E. coli DHB4 strains; LB medium,more sensitive
same,sensitivity of strain trxA^−C^− compared with wild type,E. coli DHB4 strains; LB medium,"similar, if not less"
same,growth of gor^− and gshA^− strains in presence of ebselen,E. coli DHB4 strains; minimal media (M9),hardly grew
same,inhibition of E. coli ribonucleotide reductase,[3],effective direct inhibitor
same,concentration required to inhibit growth,E. coli NHHJ,up to 50 μg per ml
